Laboratory results from patent publication US20240247015A1, “PHOSPHORUS DERIVATIVES AS NOVEL SOS1 INHIBITORS” (BAYER AKTIENGESELLSCHAFT, priority 2021, published 2024).

Target: interaction of human SOS1 (SOS1) with human K-RasG12C (Homo sapiens (Human), UniProt Q07889)
Assay: Biochemical assay: hK-RasG12C interaction assay with hSOS1 (HTRF)
Type: binding
Conditions: GST-hK-RasG12C with His-hSOS1, 60 min incubation at 20° C., mean, read-out: K-RasG12C - SOS interaction assay IC50 (mean)
In short: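 Compounds, duplicates at 11 concentrations from 0.073 nM to 20 µM, were preincubated 2 min with 10 nM GST-hK-RasG12C, then 20 nM His-hSOS1 was added, all at 20 °C. After 60 min, 665/620 nm HTRF ratio normalized to DMSO and SOS1-free controls; IC50 by 4-parameter fit.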

interaction of human SOS1 (SOS1) with human K-RasG12C, sequence (Q07889 564-1049 limits assumed): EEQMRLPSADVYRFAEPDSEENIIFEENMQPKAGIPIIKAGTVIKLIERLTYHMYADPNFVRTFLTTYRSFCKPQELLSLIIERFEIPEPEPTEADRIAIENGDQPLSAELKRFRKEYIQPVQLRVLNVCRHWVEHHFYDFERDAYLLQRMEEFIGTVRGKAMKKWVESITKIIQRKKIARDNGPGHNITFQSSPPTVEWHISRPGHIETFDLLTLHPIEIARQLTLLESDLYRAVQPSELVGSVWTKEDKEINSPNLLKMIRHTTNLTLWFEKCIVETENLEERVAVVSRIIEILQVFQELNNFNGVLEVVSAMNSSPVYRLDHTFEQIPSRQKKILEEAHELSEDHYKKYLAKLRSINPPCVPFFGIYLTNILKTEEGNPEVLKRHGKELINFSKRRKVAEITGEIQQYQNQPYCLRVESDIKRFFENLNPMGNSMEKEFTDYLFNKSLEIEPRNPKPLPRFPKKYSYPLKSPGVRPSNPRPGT

Q: `CC(=O)N1CCP(=O)(c2cc3c(N[C@H](C)c4cccc(C(F)(F)C(=O)N(C)C)c4F)nc(C)nc3cn2)CC1` [Example 45, 2-{3-[(1R)-1-{[6-(1-acetyl-4-oxo-1,4lambda^5-azaphosphinan-4-yl)-2-methylpyrido[3,4-d]pyrimidin-4-yl]amino}ethyl]-2-fluorophenyl}-2,2-difluoro-N,N-dimethylacetamide] was tested. Which IC50 did it give?
A: Its IC50 is 17 nM.

Q: For `CC(=O)N1CCP(=O)(c2cc3c(N[C@H](C)c4cccc(C(F)(F)F)c4C)nc(C)nc3c(CO)n2)CC1` [Example 34, 1-acetyl-4-[8-(hydroxymethyl)-2-methyl-4-({(1R)-1-[2-methyl-3-(trifluoromethyl)phenyl]ethyl}amino)pyrido[3,4-d]pyrimidin-6-yl]-1,4lambda^5-azaphosphinan-4-one], which IC50 is on record?
A: The IC50 was 72.8 nM.

Q: `[2H]C([2H])([2H])[C@]([2H])(Nc1nc(C)nc2cnc(P3(=O)CCN(C(C)=O)CC3)cc12)c1cccc(C(F)(F)F)c1C` [Example 138, 1-acetyl-4-(2-methyl-4-{[(1S)-1-[2-methyl-3-(trifluoromethyl)phenyl](^2H4)ethyl]amino}pyrido[3,4-d]pyrimidin-6-yl)-1,4lambda^5-azaphosphinan-4-one] was tested. Which IC50 did it give?
A: The IC50 was 6.01 nM.

Q: With `[2H]C([2H])(O)C(F)(F)c1cccc([C@@H](C)Nc2nc(C)nc3cnc(P(C)(C)=O)cc23)c1F` [Example 60, 2-{3-[(1R)-1-{[6-(dimethylphosphoryl)-2-methylpyrido[3,4-d]pyrimidin-4-yl]amino}ethyl]-2-fluorophenyl}-2,2-difluoro(^2H2)ethan-1-ol] as the compound, how does the IC50 read?
A: Its IC50 is 13.5 nM.

Q: With `Cc1nc(N[C@H](C)c2cccc(C(F)(F)F)c2C)c2cc(P(C)(C)=O)ccc2n1` [Example 106, 6-(dimethylphosphoryl)-2-methyl-N-{(1R)-1-[2-methyl-3-(trifluoromethyl)phenyl]ethyl}quinazolin-4-amine] as the compound, how does the IC50 read?
A: Its IC50 is 16.1 nM.

Q: How did the IC50 turn out when `Cc1nc(N[C@H](C)c2cccc(C(F)F)c2F)c2cc(P(=O)(C(C)C)C(C)C)ncc2n1` [Example 108, N-{(1R)-1-[3-(difluoromethyl)-2-fluorophenyl]ethyl}-6-[di(propan-2-yl)phosphoryl]-2-methylpyrido[3,4-d]pyrimidin-4-amine] was run?
A: The IC50 was 153 nM.

Q: Which IC50 does the source give for `CCCCC(C)(O)C(F)(F)c1cccc([C@@H](C)Nc2nc(C)nc3cnc(P(C)(C)=O)cc23)c1F` (mixture of isomers) [Example 23, (2RS)-1-{3-[(1R)-1-{[6-(dimethylphosphoryl)-2-methylpyrido[3,4-d]pyrimidin-4-yl]amino}ethyl]-2-fluorophenyl}-1,1-difluoro-2-methylhexan-2-ol] here?
A: Its IC50 is 12.4 nM.

Q: `CCP(C)(=O)c1cc2c(N[C@H](C)c3cccc(C(F)(F)C(C)(C)O)c3F)nc(C)nc2cn1` (single isomer, unassigned) [Example 68] was tested. Which IC50 did it give?
A: Its IC50 is 28.2 nM.

Q: Which IC50 does the source give for `CC(=O)N1CCP(=O)(c2cc3c(N[C@H](C)c4cccc(C(F)(F)F)c4C)nc(C)nc3c(C3CC3)n2)CC1` [Example 35, 1-acetyl-4-[8-cyclopropyl-2-methyl-4-({(1R)-1-[2-methyl-3-(trifluoromethyl)phenyl]ethyl}amino)pyrido[3,4-d]pyrimidin-6-yl]-1,4lambda^5-azaphosphinan-4-one] here?
A: Its IC50 is 21.5 nM.

Q: For `CCP(=O)(CC)c1cnc2nc(C)nc(N[C@H](C)c3cccc(C(F)(F)C(C)(C)O)c3F)c2c1` [Example 103, 1-{3-[(1R)-1-{[6-(diethylphosphoryl)-2-methylpyrido[2,3-d]pyrimidin-4-yl]amino}ethyl]-2-fluorophenyl}-1,1-difluoro-2-methylpropan-2-ol], which IC50 is on record?
A: The IC50 was 14.2 nM.

Q: How did the IC50 turn out when `Cc1nc(N[C@H](C)c2cccc(C(F)F)c2F)c2cc(P3(=O)CCN(C(=O)C4CC4)CC3)ncc2n1` [Example 163, 1-(cyclopropanecarbonyl)-4-[4-({(1R)-1-[3-(difluoromethyl)-2-fluorophenyl]ethyl}amino)-2-methylpyrido[3,4-d]pyrimidin-6-yl]-1,4lambda^5-azaphosphinan-4-one] was run?
A: Its IC50 is 4.77 nM.

Q: `CCP(C)(=O)c1cc2c(N[C@H](C)c3cccc(C(F)(F)C(C)O)c3F)nc(C)nc2cn1` (single isomer, unassigned) [Example 78, (2R*)-1-{3-[(1R)-1-{{6-[ethyl(methyl)phosphoryl]-2-methylpyrido[3,4-d]pyrimidin-4-yl}amino)ethyl]-2-fluorophenyl}-1,1-difluoropropan-2-ol] was tested. Which IC50 did it give?
A: Its IC50 is 21.8 nM.

Q: With `CC(=O)NCC(F)(F)c1cccc([C@@H](C)Nc2nc(C)nc3cnc(P4(=O)CCN(C(=O)C5CC5)CC4)cc23)c1F` [Example 180, N-(2-{3-[(1R)-1-({6-[1-(cyclopropanecarbonyl)-4-oxo-1,4lambda^5-azaphosphinan-4-yl]-2-methylpyrido[3,4-d]pyrimidin-4-yl}amino)ethyl]-2-fluorophenyl}-2,2-difluoroethyl)acetamide] as the compound, how does the IC50 read?
A: The IC50 was 4.6 nM.

Q: How did the IC50 turn out when `Cc1nc(N[C@H](C)c2cccc(C(F)(F)F)c2C)c2cc(P3(=O)CCCC3)ncc2n1` [Example 99, 1-[2-methyl-4-{{(1R)-1-[2-methyl-3-(trifluoromethyl)phenyl]ethyl}amino)pyrido[3,4-d]pyrimidin-6-yl]-1lambda^5-phospholan-1-one] was run?
A: The IC50 was 32.1 nM.

Q: `CC(=O)N1CCP(=O)(c2ccc3nc(C)nc(N[C@H](C)c4cccc(C(F)(F)F)c4C)c3c2)CC1` [Example 197] was tested. Which IC50 did it give?
A: Its IC50 is 7.4 nM.

Q: `Cc1nc(N[C@H](C)c2cccc(C(F)(F)C(O)C(C)(C)C)c2F)c2cc(P(C)(C)=O)ncc2n1` (stereo in doubt) [Example 136, (2R*)-1-{3-[(1R)-1-{[6-(dimethylphosphoryl)-2-methylpyrido[3,4-d]pyrimidin-4-yl]amino}ethyl]-2-fluorophenyl}-1,1-difluoro-3,3-dimethylbutan-2-ol] was tested. Which IC50 did it give?
A: The IC50 was 38.9 nM.

Q: `Cc1nc(N[C@H](C)c2cccc(C(F)(F)F)c2F)c2cc(P(C)(C)=O)ncc2n1` [Example 55, 6-(dimethylphosphoryl)-N-{(1R)-1-[2-fluoro-3-(trifluoromethyl)phenyl]ethyl}-2-methylpyrido[3,4-d]pyrimidin-4-amine] was tested. Which IC50 did it give?
A: Its IC50 is 26.2 nM.

Q: `Cc1nc(N[C@H](C)c2cccc(C(F)(F)F)c2C)c2cc(P3(=O)CCN(C(=O)C4(F)CC4)CC3)ncc2n1` [Example 168, 1-(1-fluorocyclopropane-1-carbonyl)-4-[2-methyl-4-({(1R)-1-[2-methyl-3-(trifluoromethyl)phenyl]ethyl}amino)pyrido[3,4-d]pyrimidin-6-yl]-1,4lambda^5-azaphosphinan-4-one] was tested. Which IC50 did it give?
A: The IC50 was 12 nM.

Q: `Cc1nc(N[C@H](C)c2cccc(C(F)F)c2F)c2cc(P3(=O)CCN(C(=O)C(F)F)CC3)ncc2n1` [Example 206] was tested. Which IC50 did it give?
A: The IC50 was 3.77 nM.

Q: For `CCP(C)(=O)c1cc2c(N[C@H](C)c3cccc(C(F)F)c3F)nc(C)nc2cn1` (single isomer, unassigned) [Example 119], which IC50 is on record?
A: The IC50 was 42.9 nM.

Q: `CCC(O)C(F)(F)c1cccc([C@@H](C)Nc2nc(C)nc3cnc(P(C)(C)=O)cc23)c1F` (single isomer, unassigned) [Example 89, (2R*)-1-{3-[(1R)-1-{[6-(dimethylphosphoryl)-2-methylpyrido[3,4-d]pyrimidin-4-yl]amino}ethyl]-2-fluorophenyl}-1,1-difluorobutan-2-ol] was tested. Which IC50 did it give?
A: The IC50 was 6.06 nM.

Q: `COCC(=O)N1CCP(=O)(c2cc3c(N[C@H](C)c4cccc(C(F)(F)F)c4C)nc(C)nc3cn2)CC1` [Example 177, 1-(methoxyacetyl)-4-[2-methyl-4-({(1R)-1-[2-methyl-3-(trifluoromethyl)phenyl]ethyl}amino)pyrido[3,4-d]pyrimidin-6-yl]-1,4lambda^5-azaphosphinan-4-one] was tested. Which IC50 did it give?
A: Its IC50 is 5.01 nM.

Q: For `Cc1nc(N[C@H](C)c2cccc(C(F)(F)F)c2C)c2cc(P3(=O)CCN(C(=O)C(F)F)CC3)ncc2n1` [Example 203], which IC50 is on record?
A: Its IC50 is 5.65 nM.

Q: With `Cc1nc(N[C@H](C)c2cccc(C(F)(F)C(C)O)c2F)c2cc(P3(=O)CCCC3)ncc2n1` (single isomer, unassigned) [Example 112, 1-(4-{[(1R)-1-{3-[(2R*)-1,1-difluoro-2-hydroxypropyl]-2-fluorophenyl}ethyl]amino}-2-methylpyrido[3,4-d]pyrimidin-6-yl)-1lambda^5-phospholan-1-one] as the compound, how does the IC50 read?
A: Its IC50 is 11.2 nM.

Q: How did the IC50 turn out when `Cc1nc(N[C@H](C)c2cccc(C(F)(F)F)c2C)c2cc(P(C)(C)=O)ncc2n1` [Example 1, 6-(dimethylphosphoryl)-2-methyl-N-{(1R)-1-[2-methyl-3-(trifluoromethyl)phenyl]ethyl}pyrido[3,4-d]pyrimidin-4-amine] was run?
A: The IC50 was 20.6 nM.

Q: For `CC(=O)N1CCP(=O)(c2cc3c(N[C@H](C)c4cccc(C(F)(F)F)c4C)nc(Cl)nc3cn2)CC1` [Example 196], which IC50 is on record?
A: The IC50 was 2.38 nM.

Q: `Cc1nc(N[C@H](C)c2cccc(C(F)(F)F)c2C)c2cc(P3(=O)CCN(C(=O)N(C)C)CC3)ncc2n1` [Example 188] was tested. Which IC50 did it give?
A: Its IC50 is 6.34 nM.

Q: `Cc1nc(N[C@H](C)c2cccc(C(F)F)c2F)c2cc(P3(=O)CCNCC3)ncc2n1` [Example 9, 4-[4-({(1R)-1-[3-(difluoromethyl)-2-fluorophenyl]ethyl}amino)-2-methylpyrido[3,4-d]pyrimidin-6-yl]-1,4lambda^5-azaphosphinan-4-one] was tested. Which IC50 did it give?
A: The IC50 was 22.3 nM.

Q: `Cc1nc(N[C@H](C)c2cccc(C(F)F)c2F)c2cc(P3(=O)CCN(C(=O)C(C)C)CC3)ncc2n1` [Example 153, 4-[4-({(1R)-1-[3-(difluoromethyl)-2-fluorophenyl]ethyl}amino)-2-methylpyrido[3,4-d]pyrimidin-6-yl]-1-(2-methylpropanoyl)-1,4lambda^5-azaphosphinan-4-one] was tested. Which IC50 did it give?
A: The IC50 was 7.4 nM.

Q: Which IC50 does the source give for `CC(=O)N1CCP(=O)(c2cc3c(N[C@H](C)c4cccc(C(F)(F)CO)c4F)nc(C)nc3cn2)CC1` [Example 42, 1-acetyl-4-[4-({(1R)-1-[3-(1,1-difluoro-2-hydroxyethyl)-2-fluorophenyl]ethyl}amino)-2-methylpyrido[3,4-d]pyrimidin-6-yl]-1,4lambda^5-azaphosphinan-4-one] here?
A: Its IC50 is 4.87 nM.

Q: How did the IC50 turn out when `Cc1nc(N[C@H](C)c2cccc(C(F)F)c2F)c2cc(P3(=O)CCN(C(N)=O)CC3)ncc2n1` [Example 183] was run?
A: Its IC50 is 8.38 nM.
